Reference: patent EP0628046B1, “TRIAZOLOPYRIMIDIN DERIVATIVES AS ANTIOTENSIN II RECEPTOR ANTAGONISTS” (LABORATOIRES UPSA, priority 1992, dated 1993)

What was measured:
[1] = system: récepteurs surrénaliens de l'angiotensine Il; assay: Displacement of [125I]-SIAII radioligand from adrenal angiotensin II receptors (rat adrenal homogenate); format: binding; details: 60 min at 25°C
From the text: L'affinité des produits des exemples pour les récepteurs de l'angiotensine Il est évaluée par technique de déplacement d'un radioligand spécifiquement fixé sur les récepteurs surrénaliens de l'angiotensine Il, chez le rat.
Une aliquote d'un homogénat de surrénales de rat incube en présence d'une concentration unique de [1251] - SIAII (Sar1, Tyr4, Ile8 - angiotensine il), antagoniste des récepteurs de l'angiotensine Il, et de deux concentrations d'agents compétiteurs (10^-5 M, 10^-7 M) durant 60 min à 25°C.
La réaction est achevée par ajout de tampon, puis rapide filtration à travers des filtres de papier de verre. La liaison non spécifique est déterminée en présence d'angiotensine II.
Les résultats sont exprimés, pour les concentrations testées, en pourcentage de déplacement du radioligand spécifiquement fixé sur les récepteurs surrénaliens de l'angiotensine il.

[2] = system: cellules musculaires lisses d'aortes de rat (CMLV); assay: Inhibition of PDGF-induced cell proliferation (3H-thymidine incorporation) in rat aortic smooth muscle cells; format: cell-based; details: 1E - 4M; 1 h pretreatment, 22 h PDGF stimulation
Protocol: B. Mesure de l'inhibition de la prolifération cellulaire induite par les facteurs de croissance (exemple : le Platelet-Derived Growth Factor ou PDGF) dans les cellules musculaires lisses d'aortes de rat
L'inhibition de la prolifération cellulaire induite par un facteur de croissance (exemple : le PDGF) est évaluée par mesure de l'incorporation de 3H-thymidine dans les cellules musculaires lisses d'aortes de rat (CMLV).
Les CMLV sont cultivées à 37°C, en 5 % C02, jusqu'à la sous-confluence puis placées pendant 24 heures en quiescence dans un milieu pauvre en sérum. Elles sont ensuite prétraitées pendant une heure par la molécule à tester (10^-4M) puis stimulées pendant 22 heures par un facteur de croissance (exemple : le PDGF). L'incorporation de 3H-thymidine est effectuée pendant les 4 dernières heures. Toutes ces étapes sont effectuées à 37°C, en 5 % CO2. La réaction est terminée par aspiration du milieu réactionnel, détachement des cellules, puis filtration des cellules lysées à travers des filtres en fibres de verre.
Les résultats sont exprimés en pourcentage d'inhibition de la stimulation d'incorporation de 3H-thymidine due à l'action du facteur de croissance.

Compound	% de déplacement du ligand marqué ([1]; competitor 1E-5M, 10 µM) [%]	% de déplacement du ligand marqué ([1]; competitor 1E-7M, 0.1 µM) [%]	% inhibition de l'incorporation de 3H-thymidine induite par le PDGF [2] [%]
7-N,N-diethylamino-5-propyl-6-[(2'-(1-H-tétrazol-5-yl) biphényl-4-yl) méthyl]-1,2,4-triazolo [1,5-a] pyrimidine [Exemple 69]	69	19	100
CCCc1nc2ncnn2c(O)c1Cc1ccc(-c2ccccc2-c2nnn[nH]2)cc1 [Exemple 62, 7-hydroxy-5-propyl-6-[(2'-(1-H-tétrazol-5-yl)biphényl-4-yl)méthyl]-1,2,4-triazolo [1,5-a]pyrimidine]	65	52	
CCCc1c(Cc2ccc(-c3ccccc3-c3nnn[nH]3)cc2)c(O)nc2ncnn12 [Exemple 63, 5-hydroxy-7-propyl-6-[(2'-(1-H-tétrazol-5-yl)biphényl-4-yl)méthyl]-1,2,4-triazolo [1,5-a] pyrimidine]	61	52	
CCCc1nc2nncn2c(O)c1Cc1ccc(-c2ccccc2-c2nnn[nH]2)cc1 [Exemple 65, 5-hydroxy-7-propyl-6-[(2'-(1-H-tétrazol-5-yl)biphényl-4-yl)méthyl]-1,2,4 triazolo [4,3-a] pyrimidine]	63	47	
CCCc1nc2nc(CC)nn2c(O)c1Cc1ccc(-c2ccccc2-c2nnn[nH]2)cc1 [Exemple 68, 2-éthyl-7-hydroxy-5-propyl-6-[(2'-(1-H-tétrazol-5-yl)biphényl-4-yl)méthyl]-1,2,4-triazolo [1,5-a] pyrimidine]	69	59	
CCCc1c(Cc2ccc(-c3ccccc3-c3nnn[nH]3)cc2)c(O)nc2nc(N)nn12 [Exemple 75, 2-amino-5-hydroxy-7-propyl-6-[(2'-(1-H-tétrazol-5-yl)biphényl-4-yl)méthyl]-1,2,4-triazolo [1,5-a] pyrimidine]	61	60	
CCCc1c(Cc2ccc(-c3ccccc3-c3nnn[nH]3)cc2)c(N(CC)CC)nc2ncnn12 [Exemple 76, 5-N,N-diéthylamino-7-propyl-6-[(2'-(1-H-tétrazol-5-yl)biphényl-4-yl)méthyl]-1,2,4-triazolo [1,5-a] pyrimidine]	63	28	
CCCc1c(Cc2ccc(-c3ccccc3-c3nnn[nH]3)cc2)c(N)nc2ncnn12 [Exemple 77, 5-amino-7-propyl-6-[(2'-(1-H-tétrazol-5-yl)biphényl-4-yl)méthyl]-1,2,4-triazolo [1,5-a] pyrimidine]	63	31	
CCCc1c(Cc2ccc(-c3sccc3-c3nnn[nH]3)cc2)c(O)nc2ncnn12 [Exemple 79, 5-hydroxy-7-propyl-6-[4-[3-(1-H-tétrazol-5-yl)-2-thiényl]benzyl]-1,2,4-triazolo [1,5-a] pyrimidine]	58	26	
CCCCc1c(Cc2ccc(-c3ccccc3-c3nnn[nH]3)cc2)c(O)nc2nc(C)nn12 [Exemple 82, 7-butyl-5-hydroxy-2-méthyl-6-[(2'(1-H-tétrazol-5-yl)biphényl-4-yl)méthyl]-1,2,4-triazolo [1,5-a] pyrimidine]	58	11	
